# Experimental data taken from patent US20240002377A1, “PYRROLOPYRIDINE COMPOUND AND APPLICATION THEREOF” (MEDSHINE DISCOVERY INC., priority 2020, published 2024).
# pIC50: −log10 of the molar value.
# Target: BTK^C481S (Homo sapiens (Human), UniProt Q06187, C481S)
# Assay: BTK enzyme activity assay (33P-ATP filter-binding)
# Assay type: biochemical
# Conditions: 200 μM ATP; 20 min pre-incubation, 2 h reaction at room temperature; radiometric filter-binding
# Procedure: Assay Example 1: BTK Enzyme Activity Assay
# The specific assay process of BTK enzyme activity assay is as follows: Buffer solution: 20 mM hydroxyethyl piperazine ethanesulfonic acid (Hepes) (pH 7.5), 10 mM magnesium chloride, 1 mM ethylenebis(oxyethylenenitrilo)tetraacetic acid (EGTA), 0.02% polyoxyethylene dodecyl ether (Brij35), 0.02 mg/mL BSA, 0.1 mM sodium vanadate (Na3VO4), 2 mM dithiothreitol (DTT), 1% DMSO, 200 μM adenosine triphosphate (ATP). • 1. The substrate was prepared in freshly prepared reaction buffer; • 2. The required cofactor was added to the above-mentioned substrate solution; • 3. The kinase BTK^C481S sis was added to the above-mentioned substrate solution and mix well; • 4. The compound dissolved in DMSO was added to the kinase reaction mixture through Echo550 (Acoustic technology; nanolite range), and the mixture was incubated at room temperature for 20 minutes; • 5. ^33P-ATP (specific activity of radioactivity is 10 μCi/μL) was added to the reaction mixture to initiate the reaction; • 6. The mixture was incubated at room temperature for 2 hours; • 7. The radioactivity was detected by filter-binding method; • 8. Kinase activity data represented the percentage of remaining kinase activity in the assay sample compared to the vehicle (dimethyl sulfoxide) reaction.
# Sequence of BTK^C481S (Q06187 whole entry C481S): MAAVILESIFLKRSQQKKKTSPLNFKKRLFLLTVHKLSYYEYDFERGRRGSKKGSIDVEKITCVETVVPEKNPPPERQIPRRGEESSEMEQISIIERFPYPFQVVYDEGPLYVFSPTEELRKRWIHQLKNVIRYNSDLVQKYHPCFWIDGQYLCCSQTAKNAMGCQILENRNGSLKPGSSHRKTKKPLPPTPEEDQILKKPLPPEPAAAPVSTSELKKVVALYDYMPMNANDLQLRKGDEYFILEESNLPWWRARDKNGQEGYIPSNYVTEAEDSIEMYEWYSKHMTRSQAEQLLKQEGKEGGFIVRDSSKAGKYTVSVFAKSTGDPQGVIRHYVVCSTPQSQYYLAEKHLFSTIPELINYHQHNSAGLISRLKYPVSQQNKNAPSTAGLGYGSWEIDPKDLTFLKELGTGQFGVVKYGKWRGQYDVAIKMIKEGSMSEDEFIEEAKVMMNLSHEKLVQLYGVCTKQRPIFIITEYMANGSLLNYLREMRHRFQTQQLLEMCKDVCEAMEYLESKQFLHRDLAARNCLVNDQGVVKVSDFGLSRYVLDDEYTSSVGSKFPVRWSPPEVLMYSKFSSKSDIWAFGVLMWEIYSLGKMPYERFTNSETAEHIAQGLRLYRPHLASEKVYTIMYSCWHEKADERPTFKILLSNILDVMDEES
row,pIC50,Structure (SMILES)
1,7.13,CO[C@@H]1C[C@@H](CO)OC[C@@H]1Nc1c(C#N)cnc2[nH]cc(C(=O)c3ccc(Oc4ccccc4)cc3Cl)c12 [Compound 3]
2,7.23,N#Cc1cnc2[nH]cc(C(=O)c3ccc(Oc4cccc(F)c4)cc3Cl)c2c1N[C@@H]1CC[C@@H](CO)OC1 [Compound 1]
3,8.05,O=C(c1ccc(Oc2ccccc2)cc1Cl)c1c[nH]c2ncc(F)c(N[C@@H]3CC[C@@H](CO)OC3)c12 [Compound 5]
4,8.13,N#Cc1cnc2[nH]cc(C(=O)c3ccc(Oc4ccccc4)cc3Cl)c2c1N[C@@H]1CC[C@@H](CO)OC1 [Compound 4]
5,7.93,N#Cc1cnc2[nH]cc(C(=O)c3ccc(Oc4ccccc4F)cc3Cl)c2c1N[C@@H]1CC[C@@H](CO)OC1 [Compound 2]
